Results as given in US11186577B2, “Vasopressin receptor antagonists and products and methods related thereto” (BlackThorn Therapeutics, Inc., priority 2017, dated 2021).

Assays:
[1] = target: human Arginine Vasopressin Receptor 1b (AVPR1b) (Homo sapiens (Human), UniProt P47901); assay: Vasopressin V1B receptor antagonist assay (AVP-evoked calcium, FLIPR, CHO-AVPR1b cells); assay type: cell-based
Outline: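 CHO cells expressing human AVPR1b, loaded with Calcium-6 dye, were preincubated with compound for 15 min at 37 °C, then challenged with AVP at its daily-determined EC80. Calcium fluorescence was followed for 3 min on FLIPR; 10-point, 1:3 concentration curves gave antagonism as reduced AVP response.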

[2] = target: human Arginine Vasopressin Receptor 1a (AVPR1a) (Homo sapiens (Human), UniProt P37288); assay: Vasopressin V1A receptor antagonist assay (AVP-evoked calcium, FLIPR, CHO-AVPR1a cells); assay type: cell-based; conditions: read-out: V1a IC50
Sequence of human Arginine Vasopressin Receptor 1a (AVPR1a) (P37288 whole entry): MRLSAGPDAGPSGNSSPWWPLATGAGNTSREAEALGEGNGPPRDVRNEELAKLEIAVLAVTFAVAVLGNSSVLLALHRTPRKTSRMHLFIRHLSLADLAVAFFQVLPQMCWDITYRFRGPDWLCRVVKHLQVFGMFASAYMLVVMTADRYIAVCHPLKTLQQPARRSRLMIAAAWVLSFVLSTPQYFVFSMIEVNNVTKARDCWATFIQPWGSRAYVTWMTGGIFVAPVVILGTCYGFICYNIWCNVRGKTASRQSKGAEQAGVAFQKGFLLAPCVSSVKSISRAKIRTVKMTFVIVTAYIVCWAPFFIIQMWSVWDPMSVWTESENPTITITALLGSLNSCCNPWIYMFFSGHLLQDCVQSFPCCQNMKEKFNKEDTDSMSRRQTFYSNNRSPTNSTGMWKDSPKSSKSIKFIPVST
Outline: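 Antagonism measured as reduction of AVP (EC80, set each assay day) calcium response on FLIPR in dye-loaded CHO-AVPR1a cells. Compounds, 3 μM top in 10-point 1:3 dilution, in duplicate, added 15 min before agonist at 37° C.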

Sequence of human Arginine Vasopressin Receptor 1b (AVPR1b) (P47901 whole entry): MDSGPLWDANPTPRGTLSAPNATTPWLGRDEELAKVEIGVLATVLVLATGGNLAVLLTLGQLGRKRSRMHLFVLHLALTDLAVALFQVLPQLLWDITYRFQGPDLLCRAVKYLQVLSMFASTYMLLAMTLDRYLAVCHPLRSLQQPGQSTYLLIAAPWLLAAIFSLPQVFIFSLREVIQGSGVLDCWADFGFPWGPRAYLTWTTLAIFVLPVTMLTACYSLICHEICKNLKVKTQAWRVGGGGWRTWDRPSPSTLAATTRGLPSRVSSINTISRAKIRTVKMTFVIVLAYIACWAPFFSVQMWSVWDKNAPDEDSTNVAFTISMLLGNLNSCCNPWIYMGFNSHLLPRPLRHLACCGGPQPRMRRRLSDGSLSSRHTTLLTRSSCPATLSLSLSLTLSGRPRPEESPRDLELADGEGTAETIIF

Q: What does the source list for `Clc1ccc2c(c1)CN(C1COC1)Cc1nnc(C3CC4(C3)CN(c3ccccn3)C4)n1-2` [compound 57, 8-chloro-5-(oxetan-3-yl)-1-(2-(pyridin-2-yl)-2-azaspiro[3.3]heptan-6-yl)-5,6-dihydro-4H-benzo[f][1,2,4]triazolo[4,3-a][1,4]diazepine]?
A: IC50 [1]: > 1000 nM; IC50 [2]: < 100 nM

Q: For `CC(CF)N1Cc2cc(Cl)ccc2-n2c(nnc2C2CC3(C2)CN(c2ccccn2)C3)C1` (centres unmarked) [compound 58], which IC50 [1] is on record?
A: Its IC50 is greater than 1000 nM.

Q: What about the IC50 [2] of the same molecule?
A: The IC50 was less than 100 nM.

Q: What does the source list for `FCCN1Cc2cc(Cl)ccc2-n2c(nnc2C2CC3(C2)CN(c2ccccn2)C3)C1` [compound 59]?
A: IC50 [1]: > 1000 nM; IC50 [2]: < 100 nM

Q: For `COC(=O)N1Cc2cc(Cl)ccc2-n2c(nnc2C2CC3(C2)CN(c2ccc(F)cn2)C3)C1` [compound 61], which IC50 [1] is on record?
A: Its IC50 is greater than 1000 nM.

Q: And the IC50 [2]?
A: The IC50 was less than 100 nM.

Q: Which IC50 [1] does the source give for `CC(C)C(=O)N1Cc2cc(Cl)ccc2-n2c(nnc2C2CC3(C2)CN(c2ccc(F)cn2)C3)C1` [compound 63] here?
A: The IC50 was greater than 1000 nM.

Q: And the IC50 [2]?
A: The IC50 was less than 100 nM.

Q: For `CC(=O)N1Cc2cc(Cl)ccc2-n2c(nnc2C2CC3(C2)CN(c2ccc(F)cn2)C3)C1` [compound 64], which IC50 [1] is on record?
A: The IC50 was greater than 1000 nM.

Q: And the IC50 [2]?
A: The IC50 was less than 100 nM.

Q: How did the IC50 [1] turn out when `CCC(=O)N1Cc2cc(Cl)ccc2-n2c(nnc2C2CC3(C2)CN(c2ccccn2)C3)C1` [compound 67] was run?
A: The IC50 was greater than 1000 nM.

Q: What about the IC50 [2] of the same molecule?
A: Its IC50 is less than 100 nM.

Q: What does the source list for `CCOC(=O)N1Cc2cc(Cl)ccc2-n2c(nnc2C2CC3(C2)CN(c2ccc(F)cn2)C3)C1` [compound 69]?
A: IC50 [1]: > 1000 nM; IC50 [2]: < 100 nM

Q: `COC(=O)N1Cc2cc(Cl)ccc2-n2c(nnc2C2CC3(C2)CN(c2ccccn2)C3)C1` [compound 70] was tested. Which IC50 [1] did it give?
A: Its IC50 is greater than 1000 nM.

Q: What about the IC50 [2] of the same molecule?
A: The IC50 was less than 100 nM.

Q: Which IC50 [1] does the source give for `CC(C)C(=O)N1Cc2cc(Cl)ccc2-n2c(nnc2C2CC3(C2)CN(c2ccccn2)C3)C1` [compound 71] here?
A: Its IC50 is greater than 1000 nM.

Q: What about the IC50 [2] of the same molecule?
A: Its IC50 is less than 100 nM.

Q: With `CCC(=O)N1Cc2cc(Cl)ccc2-n2c(nnc2C2CC3(C2)CN(c2ccc(F)cn2)C3)C1` [compound 72] as the molecule, how does the IC50 [1] read?
A: The IC50 was greater than 1000 nM.

Q: What about the IC50 [2] of the same molecule?
A: The IC50 was less than 100 nM.

Q: With `CC(CF)OC(=O)N1Cc2cc(Cl)ccc2-n2c(nnc2C2CC3(C2)CN(c2ccc(F)cn2)C3)C1` (centres unmarked) [compound 78] as the molecule, how does the IC50 [1] read?
A: The IC50 was greater than 1000 nM.

Q: And the IC50 [2]?
A: Its IC50 is less than 100 nM.

Q: `O=C(OC(CF)CF)N1Cc2cc(Cl)ccc2-n2c(nnc2C2CC3(C2)CN(c2ccc(F)cn2)C3)C1` [compound 79] was tested. Which IC50 [1] did it give?
A: The IC50 was greater than 1000 nM.

Q: And the IC50 [2]?
A: The IC50 was less than 100 nM.

Q: `O=C(N1Cc2cc(Cl)ccc2-n2c(nnc2C2CC3(C2)CN(c2cnccn2)C3)C1)C1(F)CC1` [compound 81] was tested. Which IC50 [1] did it give?
A: Its IC50 is greater than 1000 nM.

Q: And the IC50 [2]?
A: Its IC50 is less than 100 nM.

Q: How did the IC50 [1] turn out when `O=C(OC1CC1)N1Cc2cc(Cl)ccc2-n2c(nnc2C2CC3(C2)CN(c2ccc(F)cn2)C3)C1` [compound 90] was run?
A: Its IC50 is greater than 1000 nM.

Q: What about the IC50 [2] of the same molecule?
A: Its IC50 is less than 100 nM.

Q: `O=C(N1Cc2cc(Cl)ccc2-c2c(C3CC4(C3)CN(c3cccnn3)C4)noc2C1)C(F)(F)F` [compound 105] was tested. Which IC50 [1] did it give?
A: Its IC50 is greater than 1000 nM.

Q: What about the IC50 [2] of the same molecule?
A: The IC50 was less than 100 nM.

Q: Which IC50 [1] does the source give for `O=C(C(F)F)N1Cc2cc(Cl)ccc2-n2c(nnc2C2CC3(C2)CN(c2ccccn2)C3)C1` [compound 122] here?
A: The IC50 was greater than 1000 nM.

Q: And the IC50 [2]?
A: Its IC50 is less than 100 nM.

Q: For `O=C(C(F)F)N1Cc2cc(Cl)ccc2-n2c(nnc2C2CC3(C2)CN(C(=O)C2(F)CC2)C3)C1` [compound 134], which IC50 [1] is on record?
A: The IC50 was greater than 1000 nM.

Q: What about the IC50 [2] of the same molecule?
A: Its IC50 is less than 100 nM.

Q: With `O=C(C1CC1)N1CC2(CC(c3nnc4n3-c3ccc(Cl)cc3CN(C(=O)C3(F)CC3)C4)C2)C1` [compound 136] as the molecule, how does the IC50 [1] read?
A: Its IC50 is greater than 1000 nM.

Q: What about the IC50 [2] of the same molecule?
A: The IC50 was less than 100 nM.

Q: How did the IC50 [1] turn out when `COC(=O)N1Cc2cc(Cl)ccc2-n2c(C3CC4(C3)CN(c3ccc(F)cn3)C4)nnc2C1C` (centres unmarked) [compound 142, methyl 8-chloro-1-(2-(5-fluoropyridin-2-yl)-2-azaspiro[3.3]heptan-6-yl)-4-methyl-4H-benzo[f][1,2,4]triazolo[4,3-a][1,4]diazepine-5(6H)-carboxylate] was run?
A: The IC50 was greater than 1000 nM.

Q: What about the IC50 [2] of the same molecule?
A: Its IC50 is less than 100 nM.

Q: How did the IC50 [1] turn out when `CC(C)OC(=O)N1Cc2cc(Cl)ccc2-n2c(nnc2C2CC3(C2)CN(C(=O)C2CC2)C3)C1` [compound 153] was run?
A: Its IC50 is greater than 1000 nM.

Q: And the IC50 [2]?
A: The IC50 was less than 100 nM.

Q: How did the IC50 [1] turn out when `CC(C)OC(=O)N1Cc2cc(Cl)ccc2-n2c(C3CC4(C3)CN(c3cnccn3)C4)nnc2C1C` (centres unmarked) [compound 164] was run?
A: The IC50 was greater than 1000 nM.

Q: And the IC50 [2]?
A: Its IC50 is less than 100 nM.

Q: Which results are given for `COC(=O)N1Cc2cc(Cl)ccc2-n2c(C3CC4(C3)CN(c3cnccn3)C4)nnc2C1C` (centres unmarked) [compound 165]?
A: IC50 [1]: > 1000 nM; IC50 [2]: < 100 nM

Q: `COC(=O)N1Cc2cc(Cl)ccc2-n2c(C3CC4(C3)CN(c3ncccn3)C4)nnc2C1C` (centres unmarked) [compound 166] was tested. Which IC50 [1] did it give?
A: The IC50 was greater than 1000 nM.

Q: What about the IC50 [2] of the same molecule?
A: Its IC50 is less than 100 nM.

Q: With `CC(C)OC(=O)N1Cc2cc(Cl)ccc2-n2c(C3CC4(C3)CN(c3ncccn3)C4)nnc2C1C` (centres unmarked) [compound 167] as the molecule, how does the IC50 [1] read?
A: The IC50 was greater than 1000 nM.

Q: What about the IC50 [2] of the same molecule?
A: The IC50 was less than 100 nM.

Q: How did the IC50 [1] turn out when `CCOC(=O)N1Cc2cc(Cl)ccc2-n2c(C3CC4(C3)CN(c3ncccn3)C4)nnc2C1C` (centres unmarked) [compound 168] was run?
A: The IC50 was greater than 1000 nM.

Q: What about the IC50 [2] of the same molecule?
A: Its IC50 is less than 100 nM.

Q: How did the IC50 [1] turn out when `CCOC(=O)N1Cc2cc(Cl)ccc2-n2c(C3CC4(C3)CN(c3ccc(F)cn3)C4)nnc2C1C` (centres unmarked) [compound 169] was run?
A: Its IC50 is greater than 1000 nM.

Q: What about the IC50 [2] of the same molecule?
A: Its IC50 is less than 100 nM.

Q: `COC(=O)N1Cc2cc(Cl)ccc2-n2c(C3CC4(C3)CN(c3ncc(F)cn3)C4)nnc2C1C` (centres unmarked) [compound 170] was tested. Which IC50 [1] did it give?
A: Its IC50 is greater than 1000 nM.

Q: And the IC50 [2]?
A: Its IC50 is less than 100 nM.

Q: What does the source list for `CC1c2nnc(C3CC4(C3)CN(c3ncccn3)C4)n2-c2ccc(Cl)cc2CN1C(=O)OC1CC1` (centres unmarked) [compound 171]?
A: IC50 [1]: > 1000 nM; IC50 [2]: < 100 nM

Q: Which IC50 [1] does the source give for `CCOC(=O)N1Cc2cc(Cl)ccc2-n2c(C3CC4(C3)CN(c3ncc(F)cn3)C4)nnc2C1C` (centres unmarked) [compound 172] here?
A: The IC50 was greater than 1000 nM.

Q: What about the IC50 [2] of the same molecule?
A: The IC50 was less than 100 nM.

Q: Which results are given for `CC1c2nnc(C3CC4(C3)CN(c3ncc(F)cn3)C4)n2-c2ccc(Cl)cc2CN1C(=O)OC1(C)CC1` (centres unmarked) [compound 173]?
A: IC50 [1]: > 1000 nM; IC50 [2]: < 100 nM

Q: `CC1c2nnc(C3CC4(C3)CN(c3ccc(F)cn3)C4)n2-c2ccc(Cl)cc2CN1C(=O)C1(F)CC1` (centres unmarked) [compound 174] was tested. Which IC50 [1] did it give?
A: Its IC50 is greater than 1000 nM.

Q: What about the IC50 [2] of the same molecule?
A: Its IC50 is less than 100 nM.

Q: What does the source list for `CC1c2nnc(C3CC4(C3)CN(c3ncccn3)C4)n2-c2ccc(Cl)cc2CN1C(=O)C1(F)CC1` (centres unmarked) [compound 175]?
A: IC50 [1]: > 1000 nM; IC50 [2]: < 100 nM

Q: Which IC50 [1] does the source give for `CC1c2nnc(C3CC4(C3)CN(c3cnccn3)C4)n2-c2ccc(Cl)cc2CN1C(=O)C1(F)CC1` (centres unmarked) [compound 177] here?
A: Its IC50 is greater than 1000 nM.

Q: What about the IC50 [2] of the same molecule?
A: Its IC50 is less than 100 nM.

Q: How did the IC50 [1] turn out when `COC(=O)N1Cc2cc(Cl)ccc2-n2c(C3CC4(C3)CN(c3cccc(C)n3)C4)nnc2C1C` (centres unmarked) [compound 180] was run?
A: The IC50 was greater than 1000 nM.

Q: And the IC50 [2]?
A: The IC50 was less than 100 nM.

Q: What does the source list for `COC(=O)N1Cc2cc(Cl)ccc2-n2c(C3CC4(C3)CN(c3ncccc3F)C4)nnc2C1C` (centres unmarked) [compound 182]?
A: IC50 [1]: > 1000 nM; IC50 [2]: < 100 nM

Q: For `CC1c2nnc(C3CC4(C3)CN(c3ncc(F)cn3)C4)n2-c2ccc(Cl)cc2CN1C(=O)OC(CF)CF` (centres unmarked) [compound 194], which IC50 [1] is on record?
A: The IC50 was greater than 1000 nM.

Q: And the IC50 [2]?
A: Its IC50 is less than 100 nM.
